Assay results from US6939863B2, “Prevention of atherosclerosis and restenosis” (priority 2002, dated 2005).
Entries after “also recorded” stand apart in the source; their conditions may differ.

Columns and labels:
in vivo = details: male, New Zealand White, rabbit, 0.1 % in the drinking water, Serum PTU at sacrifice, 0.1% propylthiouracil in drinking water
Protocol: Serum propylthiouracil levels were measured by HPLC with mephenoxalone (Tung Yang Chemical Industries, Taiwan) as an internal standard. One hundred microliters of serum was placed into a tube containing 25 microliters of mephenoxalone (Tung Yang Chemical Industries, Taiwan) at 1 milligram per milliliter. All tubes were treated with 25 microliters of 1 molar K2HPO4 and mixed well by vortexing. The contents of each tube were extracted with 2 milliliters of methyl tert-butyl ether (MTBE) (Sigma, St. Louis, Mo.). Tube contents were mixed and centrifuged for 10 minutes at 3000 rpm at 25° C. The supernatant was transferred to a glass tube, dried under nitrogen gas, and reconstituted with 300 microliters of mobile phase. HPLC was performed by using a Hitachi HPLC system (Hitachi, Japan). An ODS column (Cosmosil 5C18-MS, 4.6 millimeters×250 millimeters, 5 micrometers, Nacalai Tesque, Japan) was used in this chromatographic separation, as well as an ultraviolet detector detecting at 275 nanometers. The mobile phase (acetonitrile/water/phosphoric acid, 40/60/0.5, vol/vol/vol) was degassed and filtered before use. The column flow rate was 1.0 milliliter per minute and column temperature was maintained at 40° C.

[1] = system: aortas and femoral arteries of cholesterol-fed rabbits; experiment: Atherosclerotic lesions in rabbits on 2% cholesterol diet (Sudan III, intima/media morphometry, immunohistochemistry); format: in vivo, New Zealand White rabbits; details: for Extent of sudanophilic areas / atherosclerosis in the aorta: 0.1% propylthiouracil in drinking water, 12 weeks; for Alpha-smooth muscle actin-positive cells (VSMCs) in atheromas / VSMC/macrophage ratio in atherosclerotic lesions: CHO+PTU versus CHO alone
Protocol: At the end of 12 weeks of study, the rabbits were sacrificed. The aortas (from the ascending aorta to the iliac bifurcation) and femoral arteries were removed, rinsed with phosphate-buffered saline (PBS) and stained with Sudan III, or fixed with 4% paraformaldehyde and paraffin-embedded for hematoxylin-eosin staining or immunohistochemical analysis.
For morphometric studies, up to ten cross sections ([…] and 2 millimeters apart from each other) were prepared from each paraffin-embedded segment of the aorta and femoral arteries. The specimens were stained with hematoxylin and eosin. For each cross section of an arterial specimen, the intimal and medial areas were measured.
For immunohistochemical studies, the arterial sections were deparaffinized, rehydrated and blocked in PBS containing 1% bovine serum albumin and 1% goat serum at room temperature for 30 minutes. The sections were then incubated with mouse monoclonal antibodies against smooth muscle cell alpha-actin (clone 1A4, catalogue number M0851, DAKO Corp., Carpenteria, Calif.) and mouse monoclonal antibodies against rabbit macrophages (clone RAM 11, catalogue number M0633, DAKO Corp., Carpenteria, Calif.) at 4° C. overnight. Subsequently, immunohistochemistry was performed using a commercially available peroxidase-labelled streptavidin-biotin kit (DAKO LSAB peroxidase, catalogue number K0675, DAKO, Carpenteria, Calif.) and 3,3′-diaminobenzidine tetrahydrochloride (DAKO liquid DAB+ substrate-chromagen system, catalogue number K3468, DAKO, Carpenteria, Calif.) according to the procedures provide by manufacturer.

For CCCc1cc(=O)[nH]c(=S)[nH]1 [Propylthiouracil, 6-n-propyl-2-thiouracil], the concentration at 12 weeks (in vivo; 2% cholesterol diet) was 1330 ± 1200 ng/mL, the concentration at 12 weeks (in vivo; normal chow) was 1570 ± 700 ng/mL and the “Extent of sudanophilic areas / atherosclerosis in the aorta” value ([1]; 2% cholesterol diet) was “markedly less; also recorded: significantly decreased”. For the same molecule, the “Extent of sudanophilic areas / atherosclerosis in the aorta” value ([1]; 2% cholesterol diet, listed as PTU) was “markedly less”, the “Alpha-smooth muscle actin-positive cells (VSMCs) in atheromas” value [1] was “significantly fewer” and the “VSMC/macrophage ratio in atherosclerotic lesions” value [1] was “reduce”. For the same molecule, the “Alpha-smooth muscle actin-positive cells (VSMCs) in atheromas” value ([1]; listed as PTU) was “markedly fewer”, the “VSMC/macrophage ratio in atherosclerotic lesions” value ([1]; listed as PTU) was “decreased” and the Intima/media area ratio ([1]; ascending aorta, aortic arch and femoral arteries, 2% cholesterol diet) was “deceased significantly”. The “Visible atherosclerotic lesion in aortas and arteries” value ([1]; normal chow, Groups 2 and 3, data not shown) was “no visible atherosclerotic lesion” and the “TUNEL-positive cells in aortas of rabbits” value ([1]; propylthiouracil and cholesterol/propylthiouracil treatment groups) was “absent”.
